Legend:
Type in all cases: binding
[1] = target: T1, human serotonin transporter (hSERT) (Homo sapiens, UniProt P31645); assay: Screening for human serotonin transporter (hSERT) antagonists, scintillation proximity assay (SPA); conditions: competition with [3H]-Citalopram; membranes of HEK-293 cells expressing recombinant hSERT
T1 construct: expressed in transfected cells; Tatsumi et al. 1997
Method: The screening assay of this example was used to determine the affinity of ligands at the hSERT transporter by competition with [^3H]-Citalopram.
Scintillation Proximity Assay (SPA) works by bringing radioligand within close proximity to the bead's scintillant to stimulate light emission. In this assay, the receptor-containing membranes were pre-coupled to the SPA beads and the binding of the appropriate radioligand to the transporter was measured. The light emission was proportional to the amount of bound radioligand. Unbound radioligand produced no signal as a result of distant proximity to scintillant (lack of energy transfer). […]
(§1) Cell membranes were prepared using a membrane preparation buffer of 50 mM TRIS (pH 7.4). […] After a second centrifugation, the pellet was re-homogenized and brought to a final volume determined during the assay. […]
The % inhibition was calculated for each compound tested [(Compound counts per minute (CPM) at maximum concentration-Non-Specific CPM)/Total CPM*100]. […]
(§2) [formula] where max=total binding, min=non specific binding, x=concentration (M) of the tested compound and n=Hill slope. The inhibition dissociation constant (Ki) of each compound was determined according to the method of Cheng-Prusoff and then converted into negative logarithm (pKi) of the Ki.

[2] = target: T2, human norepinephrine transporter (hNET) (Homo sapiens, UniProt P23975); assay: Screening for compounds active at human norepinephrine transporter (hNET), scintillation proximity assay (SPA); conditions: competition with [3H]-Nisoxetine; membranes of HEK-293 cells expressing recombinant hNET
T2 construct: expressed in transfected cells; Clone: HEK-hNET #2)
T2 sequence (P23975 whole entry): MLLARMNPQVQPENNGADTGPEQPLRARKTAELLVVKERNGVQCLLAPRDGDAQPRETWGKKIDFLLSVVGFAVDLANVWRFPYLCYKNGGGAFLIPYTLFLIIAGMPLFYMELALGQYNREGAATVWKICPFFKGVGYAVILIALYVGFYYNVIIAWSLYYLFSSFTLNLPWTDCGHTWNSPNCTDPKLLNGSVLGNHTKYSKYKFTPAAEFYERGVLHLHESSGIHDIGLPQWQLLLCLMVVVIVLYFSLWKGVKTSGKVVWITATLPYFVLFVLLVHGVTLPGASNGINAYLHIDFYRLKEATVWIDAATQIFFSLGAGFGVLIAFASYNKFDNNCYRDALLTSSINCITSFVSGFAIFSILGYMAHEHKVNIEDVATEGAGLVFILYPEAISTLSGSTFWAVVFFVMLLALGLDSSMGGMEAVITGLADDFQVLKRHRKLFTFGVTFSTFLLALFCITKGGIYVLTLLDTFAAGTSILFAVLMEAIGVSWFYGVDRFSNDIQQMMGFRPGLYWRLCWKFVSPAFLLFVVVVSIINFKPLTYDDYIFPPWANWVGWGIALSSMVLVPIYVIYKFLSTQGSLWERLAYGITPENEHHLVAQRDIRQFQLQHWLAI
Method: This assay was used to determine the affinity of ligands for the hNET transporter by competition with [^3H]-Nisoxetine. As in the hSERT assay of the above example, receptor-containing membranes were pre-coupled to the SPA beads and the binding of the appropriate radioligand to the transporter was measured. The light emission was proportional to the amount of bound radioligand, with unbound radioligand producing no signal.
HEK-293 cells (Tatsumi et al., Eur. J. Pharmacol. 1997, 30, 249-258) stably expressing recombinant hNET (Clone: HEK-hNET #2) were maintained with media (DMEM hi glucose with 10% FBS, 300 μg/ml G418 and 2 mM L-Glutamine) and incubated at 37° C. with 5% CO2. Cells were released from culture flasks using PBS for 1-2 minutes. […]
as §1
^3[H] […] The mixtures were allowed to stand at room temperature for one hour, and were then counted on a Packard TopCount LCS, a generic SPA counting protocol settings (Energy Range: Low, Efficiency Mode: Normal, Region A: 1.50-35.00, Region B: 1.50-256.00, Count Time (min.): 0.40, Background Subtract: none, Half-Life Correction: no, Quench Indicator: tSIS, Platemap blank subtraction: No, Cross talk reduction: Off). […]

[3] = target: T3, human dopamine transporter (hDAT) (Homo sapiens, UniProt Q01959); assay: Screening for compounds active at human dopamine transporter, scintillation proximity assay (SPA); conditions: competition with [3H]-Vanoxerine; HEK-293 cells expressing recombinant hDAT
T3 construct: expressed in transfected cells; Tatsumi et al. 1997
T3 sequence (Q01959 whole entry): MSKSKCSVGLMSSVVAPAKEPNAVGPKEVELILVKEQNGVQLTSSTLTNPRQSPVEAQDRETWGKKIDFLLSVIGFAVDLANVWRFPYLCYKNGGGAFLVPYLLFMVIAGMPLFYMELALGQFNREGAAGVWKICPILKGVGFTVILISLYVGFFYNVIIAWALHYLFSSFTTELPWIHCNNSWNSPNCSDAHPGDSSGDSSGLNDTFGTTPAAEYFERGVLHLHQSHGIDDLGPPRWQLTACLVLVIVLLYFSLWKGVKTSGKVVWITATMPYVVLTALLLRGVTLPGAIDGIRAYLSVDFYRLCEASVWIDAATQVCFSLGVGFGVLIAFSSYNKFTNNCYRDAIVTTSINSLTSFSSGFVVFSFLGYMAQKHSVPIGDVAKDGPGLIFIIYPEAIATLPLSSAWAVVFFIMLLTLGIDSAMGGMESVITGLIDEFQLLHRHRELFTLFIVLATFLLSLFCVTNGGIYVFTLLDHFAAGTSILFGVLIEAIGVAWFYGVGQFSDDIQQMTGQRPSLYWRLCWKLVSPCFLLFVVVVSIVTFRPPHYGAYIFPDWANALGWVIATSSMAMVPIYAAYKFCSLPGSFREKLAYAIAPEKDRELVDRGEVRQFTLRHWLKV
Method: This assay was used to determine the affinity of ligands for the dopamine transporter by competition with [^3H]-Vanoxerine.
HEK-293 cells (Tatsumi et al., Eur. J. Pharmacol. 1997, 30, 249-258) stably expressing recombinant hDAT were maintained with media (DMEM hi glucose with 10% FBS, 300 μg/ml G418 and 2 mM L-Glutamine) and incubated at 37° C. with 5% CO2. Cells were plated four hours prior to experiment by placing approximately 30,000 cells per well (in PBS) on white, opaque Cell-Tak coated 96 well plates. Extra buffer was apriated from the cell plates using an ELx405 plate washer.
^3[H] vanoxerine (GBR 12909) radioligand, specific activity approximately 59 Ci/mmol, stock concentration, 400 nM, and 50 mM Tris-HCl, 300 mM NaCl, (pH 7.4) buffers were used for Scintillation Proximity Assay IC50/Ki determination. […]
The % inhibition was calculated for each compound tested [(Compound CPM at maximum concentration-Non-Specific CPM)/Total CPM*100]. […]
as §2

T1 sequence (P31645 whole entry): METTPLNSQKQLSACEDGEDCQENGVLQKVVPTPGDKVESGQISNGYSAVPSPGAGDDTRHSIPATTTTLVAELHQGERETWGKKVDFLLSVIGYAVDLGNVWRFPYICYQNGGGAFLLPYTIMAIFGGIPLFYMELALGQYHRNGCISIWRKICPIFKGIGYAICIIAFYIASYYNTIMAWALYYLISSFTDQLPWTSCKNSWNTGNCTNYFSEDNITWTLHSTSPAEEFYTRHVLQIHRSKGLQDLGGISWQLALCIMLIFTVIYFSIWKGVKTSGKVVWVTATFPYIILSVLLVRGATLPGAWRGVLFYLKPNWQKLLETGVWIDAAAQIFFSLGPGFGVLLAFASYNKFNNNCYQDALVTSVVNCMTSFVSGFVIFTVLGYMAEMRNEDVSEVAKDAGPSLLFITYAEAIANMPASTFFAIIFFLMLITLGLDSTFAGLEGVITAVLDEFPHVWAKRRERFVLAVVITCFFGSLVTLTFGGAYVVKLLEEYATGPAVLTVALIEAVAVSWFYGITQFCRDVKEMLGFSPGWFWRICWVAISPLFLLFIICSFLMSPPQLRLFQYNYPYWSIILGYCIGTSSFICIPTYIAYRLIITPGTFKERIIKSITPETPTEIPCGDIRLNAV

Fc1cccc(CN(c2ccc3[nH]ncc3c2)C2CCNCC2)c1 [Compound 53, (3-Fluoro-benzyl)-(1H-indazol-5-yl)-piperidin-4-yl-amine]
Ki [1]: ~0.316 nM

COc1cccc(CN(c2ccc3[nH]ncc3c2)C2CCNCC2)c1 [Compound 54, (1H-Indazol-5-yl)-(3-methoxy-benzyl)-piperidin-4-yl-amine]
Ki [2]: ~1.58 nM

NS(=O)(=O)c1cccc(CN(c2ccc3[nH]ccc3c2)C2CCNCC2)c1 [Compound 69, 3-{[(1H-Indol-5-yl)-piperidin-4-yl-amino]-methyl}-benzenesulfonamide]
Ki [3]: ~10 nM

Source: US8093285B2, “Aminopiperidinyl derivatives and uses thereof” (Roche Palo Alto LLC, priority 2008, dated 2012)
